Drawing on patent publication US11427548B2 (Arvinas Operations, Inc., priority 2015, dated 2022), this text covers DC50 and Dmax for 11 molecules.

For the test, the target named is T1, Androgen Receptor (Homo sapiens, UniProt P10275).
T1 construct: endogenous in cells; host or cells: VCaP cells
T1 sequence (P10275 1-920): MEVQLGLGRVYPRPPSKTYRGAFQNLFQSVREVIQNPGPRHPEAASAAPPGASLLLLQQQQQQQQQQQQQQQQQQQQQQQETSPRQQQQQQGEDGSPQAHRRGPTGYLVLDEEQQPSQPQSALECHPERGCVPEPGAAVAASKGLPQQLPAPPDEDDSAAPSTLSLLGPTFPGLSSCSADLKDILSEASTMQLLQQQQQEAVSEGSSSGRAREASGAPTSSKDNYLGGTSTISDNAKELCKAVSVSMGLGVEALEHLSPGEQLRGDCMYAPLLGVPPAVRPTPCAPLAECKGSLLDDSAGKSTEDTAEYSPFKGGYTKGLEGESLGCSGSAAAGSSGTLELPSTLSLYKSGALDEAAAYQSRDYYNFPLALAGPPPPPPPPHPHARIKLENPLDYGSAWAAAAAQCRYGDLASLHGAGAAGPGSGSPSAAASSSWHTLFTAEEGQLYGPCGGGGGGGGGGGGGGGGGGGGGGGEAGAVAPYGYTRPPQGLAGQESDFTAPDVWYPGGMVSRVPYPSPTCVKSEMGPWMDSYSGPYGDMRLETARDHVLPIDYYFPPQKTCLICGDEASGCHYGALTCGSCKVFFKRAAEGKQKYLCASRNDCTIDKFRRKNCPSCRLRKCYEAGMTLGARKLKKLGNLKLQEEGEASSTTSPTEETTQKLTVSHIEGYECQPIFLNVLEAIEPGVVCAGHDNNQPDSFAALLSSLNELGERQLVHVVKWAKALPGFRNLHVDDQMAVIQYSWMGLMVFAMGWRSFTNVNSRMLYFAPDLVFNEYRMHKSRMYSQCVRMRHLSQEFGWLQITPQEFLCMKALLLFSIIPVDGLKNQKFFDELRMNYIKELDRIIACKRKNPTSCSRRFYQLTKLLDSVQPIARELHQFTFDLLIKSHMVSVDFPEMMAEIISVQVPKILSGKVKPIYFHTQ
Kind of test: Androgen Receptor ELISA assay (PathScan AR ELISA) in VCaP cells: AR degradation, Dmax and DC50. The test is classed as cell-based. The following applies: for DC50: read-out: VCaP DC50; for Dmax: VCaP, read-out: VCaP Dmax (%). The method in brief:
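After 24 h exposure of VCaP cells (charcoal-stripped serum, 0.1 nM R1881 agonist, 0.1% DMSO) to seven half-log compound concentrations, residual AR in lysates was measured by PathScan ELISA (TMB absorbance, 450 nm). Cells were plated at 30,000/well and grown at least 3 days beforehand.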

Like-named read-outs stand apart in the source and are kept apart here.

A word on the DC50: it is the concentration at which degradation of the target reaches its halfway point. For orientation: Dmax means the largest share of the target that was removed. `Cc1ncsc1-c1ccc([C@H](C)NC(=O)C2C[C@@H](O)CN2C(=O)C(NC(=O)CN2CCN(CCN3CCN(c4ccc(C(=O)NC5C(C)(C)C(Oc6ccc(C#N)c(Cl)c6)C5(C)C)cn4)C[C@H]3CO)CC2)C(C)(C)C)cc1` (stereo partly drawn) [Example 843, N-((1r,3S)-3-(3-chloro-4-cyanophenoxy)-2,2,4,4-tetramethylcyclobutyl)-6-((S)-4-(2-(4-(2-(((S)-1-((2S,4R)-4-hydroxy-2-(((S)-1-(4-(4-methylthiazol-5-yl)phenyl)ethyl)carbamoyl)pyrrolidin-1-yl)-3,3-dimethyl-1-oxobutan-2-yl)amino)-2-oxoethyl)piperazin-1-yl)ethyl)-3-(hydroxymethyl)piperazin-1-yl) nicotinamide]: for the setting “VCaP cells, Table 36”, the DC50 is under 50 nM and the Dmax lay in the range of 51 to 70%.

As for `Cc1ncsc1-c1ccc([C@H](C)NC(=O)[C@@H]2C[C@@H](O)CN2C(=O)[C@@H](NC(=O)CO[C@H]2C[C@@H](N3CCN(c4ccc(C(=O)N[C@H]5C(C)(C)[C@H](Oc6ccc(C#N)c(Cl)c6)C5(C)C)cn4)CC3)C2)C(C)(C)C)cc1` [Example 845, N-((1r,3R)-3-(3-chloro-4-cyanophenoxy)-2,2,4,4-tetramethylcyclobutyl)-6-(4-((1R,3S)-3-(2-(((S)-1-((2S,4R)-4-hydroxy-2-(((S)-1-(4-(4-methylthiazol-5-yl)phenyl)ethyl)carbamoyl)pyrrolidin-1-yl)-3,3-dimethyl-1-oxobutan-2-yl)amino)-2-oxoethoxy)cyclobutyl)piperazin-1-yl)nicotinamide], for the setting “VCaP cells, Table 36”, the DC50 was under 50 nM and the greatest degradation seen (Dmax) is over 71%.

For the molecule `Cc1ncsc1-c1ccc([C@H](C)NC(=O)[C@@H]2C[C@@H](O)CN2C(=O)[C@@H](NC(=O)COC2CC(N3CCN(c4ccc(C(=O)NC5C(C)(C)C(Oc6ccc(C#N)c(Cl)c6)C5(C)C)cn4)CC3)C2)C(C)(C)C)cc1` (stereo partly drawn) [Example 846, N-((1r,3R)-3-(3-chloro-4-cyanophenoxy)-2,2,4,4-tetramethylcyclobutyl)-6-(4-((1S,3R)-3-(2-(((S)-1-((2S,4R)-4-hydroxy-2-(((S)-1-(4-(4-methylthiazol-5-yl)phenyl)ethyl)carbamoyl)pyrrolidin-1-yl)-3,3-dimethyl-1-oxobutan-2-yl)amino)-2-oxoethoxy)cyclobutyl)piperazin-1-yl)nicotinamide], for the setting “VCaP cells, Table 36”, the DC50 was under 50 nM and the Dmax was over 71%.

On to `Cc1ncsc1-c1ccc([C@H](CO)NC(=O)[C@@H]2C[C@@H](O)CN2C(=O)[C@@H](NC(=O)CN2CCC(CN3CCN(c4ccc(C(=O)N[C@H]5C(C)(C)[C@H](Oc6ccc(C#N)c(Cl)c6)C5(C)C)cn4)CC3)CC2)C(C)(C)C)cc1` [Example 847, N-((1r,3r)-3-(3-chloro-4-cyanophenoxy)-2,2,4,4-tetramethylcyclobutyl)-6-(4-((1-(2-(((S)-1-((2S,4R)-4-hydroxy-2-(((R)-2-hydroxy-1-(4-(4-methylthiazol-5-yl)phenyl)ethyl)carbamoyl)pyrrolidin-1-yl)-3,3-dimethyl-1-oxobutan-2-yl)amino)-2-oxoethyl)piperidin-4-yl)methyl)piperazin-1-yl)nicotinamide], for which the Dmax is over 71%. The 50% degradation concentration (DC50) (VCaP cells, Table 36) was under 50 nM.

`Cc1ncsc1-c1ccc([C@H](C)NC(=O)[C@@H]2CC(O)CN2C(=O)[C@H](C(C)C)N2Cc3cc(OCCN4CCN(c5ccc(C(=O)N[C@H]6C(C)(C)[C@H](Oc7ccc(C#N)c(Cl)c7)C6(C)C)cn5)CC4)ccc3C2=O)cc1` (stereo partly drawn) [Example 848, N-((1r,3r)-3-(3-chloro-4-cyanophenoxy)-2,2,4,4-tetramethylcyclobutyl)-6-(4-(2-((2-((S)-1-((2S, 4R)-4-hydroxy-2-(((S)-1-(4-(4-methylthiazol-5-yl)phenyl)ethyl)carbamoyl)pyrrolidin-1-yl)-3-methyl-1-oxobutan-2-yl)-1-oxoisoindolin-5-yl)oxy)ethyl)piperazin-1-yl)nicotinamide]: for the setting “VCaP cells, Table 36”, the half-maximal degradation concentration (DC50) was under 50 nM and the maximal degradation (Dmax) was over 71%.

As for `Cc1ncsc1-c1ccc([C@H](C)NC(=O)[C@@H]2C[C@@H](O)CN2C(=O)[C@@H](NC(=O)COCCN2CCN(c3ccc(C(=O)N[C@H]4CC(Oc5ccc(C#N)c(Cl)c5)C4(C)C)cn3)CC2)C(C)(C)C)cc1` (stereo partly drawn) [Example 849, N-((1S)-3-(3-chloro-4-cyanophenoxy)-2,2-dimethylcyclobutyl)-6-(4-(2-(2-(((S)-1-((2S, 4R)-4-hydroxy-2-(((S)-1-(4-(4-methylthiazol-5-yl)phenyl)ethyl)carbamoyl)pyrrolidin-1-yl)-3,3-dimethyl-1-oxobutan-2-yl)amino)-2-oxoethoxy)ethyl)piperazin-1-yl)nicotinamide], for the setting “VCaP cells, Table 36”, the DC50 was under 50 nM and the Dmax lay in the range of 51 to 70%.

For `Cc1ncsc1-c1ccc([C@H](C)NC(=O)[C@@H]2C[C@@H](O)CN2C(=O)[C@@H](NC(=O)COCCN2CCN(c3ccc(C(=O)N[C@H]4C[C@@H](Oc5ccc(C#N)c(Cl)c5)C4(C)C)cn3)CC2)C(C)(C)C)cc1` [Example 850, N-((1S,3R)-3-(3-chloro-4-cyanophenoxy)-2,2-dimethylcyclobutyl)-6-(4-(2-(2-(((S)-1-((2S, 4R)-4-hydroxy-2-(((S)-1-(4-(4-methylthiazol-5-yl)phenyl)ethyl)carbamoyl)pyrrolidin-1-yl)-3,3-dimethyl-1-oxobutan-2-yl)amino)-2-oxoethoxy)ethyl)piperazin-1-yl) nicotinamide], for the setting “VCaP cells, Table 36”, the 50% degradation concentration (DC50) was under 50 nM and the maximal degradation (Dmax) lay within 51 to 70%.

With `Cc1ncsc1-c1ccc([C@H](C)NC(=O)[C@@H]2C[C@@H](O)CN2C(=O)[C@@H](NC(=O)CC2(CN3CCN(c4ccc(C(=O)N[C@H]5C(C)(C)[C@H](Oc6ccc(C#N)c(Cl)c6)C5(C)C)cn4)CC3)COC2)C(C)(C)C)cc1` [Example 851, N-((1r,3r)-3-(3-chloro-4-cyanophenoxy)-2,2,4,4-tetramethylcyclobutyl)-6-(4-((3-(2-(((S)-1-((2S,4R)-4-hydroxy-2-(((S)-1-(4-(4-methylthiazol-5-yl)phenyl)ethyl)carbamoyl)pyrrolidin-1-yl)-3,3-dimethyl-1-oxobutan-2-yl)amino)-2-oxoethyl)oxetan-3-yl)methyl)piperazin-1-yl)nicotinamide], for the setting “VCaP cells, Table 36”, the DC50 is under 50 nM and the greatest degradation seen (Dmax) lay within 26 to 50%.

Take `CC(=O)O[C@@H]1C[C@@H](C(=O)N[C@@H](C)c2ccc(-c3scnc3C)cc2)N(C(=O)[C@H](C(C)C)N2Cc3cc(OCCN4CCN(c5ccc(C(=O)N[C@H]6C(C)(C)[C@H](Oc7ccc(C#N)c(Cl)c7)C6(C)C)cn5)CC4)ccc3C2=O)C1` [Example 852, (3R,5S)-1-((S)-2-(5-(2-(4-(5-(((1r,3r)-3-(3-chloro-4-cyanophenoxy)-2,2,4,4-tetramethylcyclobutyl)carbamoyl)pyridin-2-yl)piperazin-1-yl)ethoxy)-1-oxoisoindolin-2-yl)-3-methylbutanoyl)-5-(((S)-1-(4-(4-methylthiazol-5-yl)phenyl)ethyl)carbamoyl)pyrrolidin-3-yl acetate]: the maximal degradation (Dmax) fell in the range of 51 to 70%. The DC50 (VCaP cells, Table 36) is under 50 nM.

As to `Cc1ncsc1-c1ccc([C@H](C)NC(=O)[C@@H]2C[C@@H](O)CN2C(=O)[C@@H](NC(=O)CN2CCN(CC3CCN(c4ccc(C(=O)N[C@H]5C(C)(C)[C@H](Oc6ccc(C#N)c(Cl)c6)C5(C)C)cn4)CC3)CC2)C(C)(C)C)cc1` [Example 853, N-((1r,3r)-3-(3-chloro-4-cyanophenoxy)-2,2,4,4-tetramethylcyclobutyl)-6-(4-((4-(2-(((S)-1-((2S,4R)-4-hydroxy-2-(((S)-1-(4-(4-methylthiazol-5-yl)phenyl)ethyl)carbamoyl)pyrrolidin-1-yl)-3,3-dimethyl-1-oxobutan-2-yl)amino)-2-oxoethyl)piperazin-1-yl)methyl)piperidin-1-yl) nicotinamide], the Dmax is over 71%. Moreover, where the note is “VCaP cells, Table 36”, the half-maximal degradation concentration (DC50) was under 50 nM.

As for `Cc1ncsc1-c1ccc([C@H](CO)NC(=O)[C@@H]2C[C@@H](O)CN2C(=O)[C@@H](NC(=O)CN2CCN(CC3CCN(c4ccc(C(=O)N[C@H]5C(C)(C)[C@H](Oc6ccc(C#N)c(Cl)c6)C5(C)C)cn4)CC3)CC2)C(C)(C)C)cc1` [Example 854, N-((1r,3r)-3-(3-chloro-4-cyanophenoxy)-2,2,4,4-tetramethylcyclobutyl)-6-(4-((4-(2-(((S)-1-((2S,4R)-4-hydroxy-2-(((R)-2-hydroxy-1-(4-(4-methylthiazol-5-yl)phenyl)ethyl)carbamoyl)pyrrolidin-1-yl)-3,3-dimethyl-1-oxobutan-2-yl)amino)-2-oxoethyl)piperazin-1-yl)methyl)piperidin-1-yl)nicotinamide], the greatest degradation seen (Dmax) is over 71%. Moreover, under “VCaP cells, Table 36”, the DC50 is under 50 nM.
